Test results taken from ChEMBL document CHEMBL1122107, “Structure-antitumor activity relationships of 9-anilinoacridines using pattern recognition” (1982).

Test system: L1210
Test: Tumor cell selectivity determined as maximal percent increase in life span (ILSmax) at LD10 dosage level in L1210 cells
Format: functional, Mus musculus

Row | Structure (SMILES) | ILSmax [%]
1 | COc1cc(NS(C)(=O)=O)ccc1Nc1c2ccccc2nc2cc(Cl)ccc12 | 99
2 | CCCC(=O)N(c1ccc(Nc2c3ccccc3nc3cc(N)ccc23)cc1)S(C)(=O)=O | 55
3 | CC(=O)Nc1ccc2c(=Nc3ccc(CCC(=O)O)cc3)c3ccccc3[nH]c2c1 | 25
4 | CS(=O)(=O)Nc1ccc(Nc2c3ccccc3nc3ccccc23)c(OCCO)c1 | 67
5 | NCc1ccc(Nc2c3ccccc3nc3ccccc23)cc1 | 25
6 | CCc1ccc2c(Nc3ccc(NS(C)(=O)=O)cc3OC)c3ccccc3nc2c1 | 123
7 | COc1ccc2nc3cc(N)ccc3c(Nc3ccc(NS(C)(=O)=O)cc3)c2c1 | 25
8 | NCCCCCS(=O)(=O)Nc1ccc(Nc2c3ccccc3nc3ccccc23)cc1 | 25
9 | CCS(=O)(=O)Nc1ccc(Nc2c3ccccc3nc3c(C)cccc23)c(OC)c1 | 76
10 | Cc1ccc2c(Nc3ccc(NS(C)(=O)=O)cc3)c3ccc(N)cc3nc2c1C | 110
11 | CC(=O)Nc1ccc2c(Nc3ccc(NS(C)(=O)=O)cc3)c3cccc(C)c3nc2c1C | 60
12 | COc1cc(NS(C)(=O)=O)ccc1Nc1c2cccc(C)c2nc2c(C)c(C)ccc12 | 120
13 | CS(=O)(=O)Nc1ccc(Nc2c3ccccc3nc3cc(Cl)c(N)cc23)cc1 | 140
14 | CC(=O)c1ccc(N=c2c3ccccc3[nH]c3cc(N)ccc23)cc1 | 52
15 | CC(=O)N(C)c1ccc(Nc2c3ccccc3nc3ccccc23)cc1 | 50
16 | CCCCCCS(=O)(=O)Nc1ccc(Nc2c3ccccc3nc3cc([N+](=O)[O-])ccc23)c(OC)c1 | 74
17 | CC(=O)Nc1ccc2c(Nc3ccc(N(C(=O)C(C)C)S(C)(=O)=O)cc3)c3ccccc3nc2c1 | 140
18 | NCCCCc1ccc(Nc2c3ccccc3nc3cc([N+](=O)[O-])ccc23)cc1 | 25
19 | CN(C)C(=O)CCS(=O)(=O)Nc1ccc(Nc2c3ccccc3nc3ccccc23)cc1 | 63
20 | COc1cccc2c(Nc3ccc(NS(C)(=O)=O)cc3)c3ccc(I)cc3nc12 | 80
21 | N=C(N)NCCCCS(=O)(=O)Nc1ccc(Nc2c3ccccc3nc3ccccc23)cc1 | 25
22 | CC(=O)NCCS(=O)(=O)Nc1ccc(Nc2c3ccccc3nc3ccccc23)cc1 | 105
23 | COc1cccc2c(Nc3ccc(NS(C)(=O)=O)cc3)c3ccc(N)cc3nc12 | 100
24 | CCCCCCS(=O)(=O)Nc1ccc(Nc2c3ccccc3nc3ccccc23)c(OC)c1 | 66
25 | CCS(=O)(=O)Nc1ccc(Nc2c3ccccc3nc3cc(C)ccc23)cc1 | 84
26 | CNc1ccc2c(Nc3ccc(OCCCC(=O)O)cc3)c3ccccc3nc2c1 | 25

Row | Structure (SMILES) | ILSmax [%]
27 | Nc1ccc(C(=O)Nc2ccc(N=c3c4ccccc4[nH]c4ccc(N)cc34)cc2)cc1 | 76
28 | COc1ccc(Nc2c3ccccc3nc3cc([N+](=O)[O-])ccc23)cc1 | 30
29 | CCS(=O)(=O)Nc1ccc(Nc2c3ccccc3nc3cc(NC(C)=O)ccc23)cc1 | 115
30 | NCCc1ccc(NC(=O)Nc2ccc(N=c3c4ccccc4[nH]c4ccccc34)cc2)cc1 | 170
31 | COc1ccc2nc3cc([N+](=O)[O-])ccc3c(Nc3ccc(NS(C)(=O)=O)cc3)c2c1 | 55
32 | COc1cc(NS(C)(=O)=O)ccc1N=c1c2ccccc2[nH]c2c(CN(C)C)cccc12 | 72
33 | Cc1ccc2c(Nc3ccc(NS(C)(=O)=O)cc3)c3ccc([N+](=O)[O-])cc3nc2c1 | 170
34 | Nc1ccc2c(Nc3ccc(C(=O)O)cc3)c3ccccc3nc2c1 | 25
35 | CCN(CC)/N=N/c1ccc2c(Nc3ccc(NS(C)(=O)=O)cc3)c3ccccc3nc2c1 | 95
36 | COc1cc(NS(C)(=O)=O)ccc1Nc1c2cccc(C)c2nc2c(C)c([N+](=O)[O-])ccc12 | 56
37 | NCCCCCCc1ccc(N=c2c3ccccc3[nH]c3cc([N+](=O)[O-])ccc23)cc1 | 25
38 | COc1cc(NS(C)(=O)=O)ccc1Nc1c2ccc(I)cc2nc2c(OC)cccc12 | 100
39 | COc1ccc2nc3cc(Cl)ccc3c(Nc3ccc(NS(C)(=O)=O)cc3OC)c2c1 | 25
40 | NC(=O)CCCCCc1ccc(Nc2c3ccccc3nc3ccccc23)cc1 | 97
41 | O=C(O)c1ccc(Nc2c3ccccc3nc3c(OCC(O)CO)cccc23)cc1 (stereo unspecified) | 170
42 | CS(=O)(=O)Nc1ccc(Nc2c3ccccc3nc3cccc([N+](=O)[O-])c23)cc1 | 25
43 | COc1cc(NS(C)(=O)=O)ccc1Nc1c2ccccc2nc2cc(C(F)(F)F)c(N)cc12 | 90
44 | CNS(=O)(=O)c1ccc(N=c2c3ccccc3[nH]c3cc(N)ccc23)cc1 | 55
45 | NC(=O)CCCCCCCCc1ccc(Nc2c3ccccc3nc3ccccc23)cc1 | 26
46 | CC(Oc1ccc(Nc2c3ccccc3nc3ccccc23)cc1)C(=O)O (stereo unspecified) | 25
47 | O=C(O)CCc1cccc(Nc2c3ccccc3nc3ccccc23)c1 | 25
48 | CS(=O)(=O)Nc1ccc(Nc2c3cc(N)ccc3nc3ccc(N)cc23)cc1 | 35
49 | CN1CCN(c2ccc(Nc3c4ccccc4nc4cc([N+](=O)[O-])ccc34)cc2)CC1 | 25
50 | CS(=O)(=O)Nc1ccc(Nc2c3ccccc3nc3cc(NC(=O)/C=C/c4ccccc4)ccc23)cc1 | 25
51 | Nc1ccc2c(Nc3ccc([N+](=O)[O-])cc3)c3ccccc3nc2c1 | 25
52 | CCS(=O)(=O)Nc1ccc(Nc2c3ccccc3nc3c(C)cccc23)cc1 | 65

Row | Structure (SMILES) | ILSmax [%]
53 | O=C(O)CCc1ccc(Nc2c3ccccc3nc3ccccc23)cc1 | 162
54 | COc1cc(Nc2c3ccccc3nc3c([N+](=O)[O-])cccc23)ccc1NS(C)(=O)=O | 25
55 | OC[C@@H]1O[C@H](Oc2ccc(Nc3c4ccccc4nc4ccccc34)cc2)[C@@H](O)[C@H](O)[C@H]1O | 60
56 | CC(=O)Nc1ccc(Nc2c3ccccc3nc3ccccc23)cc1 | 60
57 | Cc1ccc2nc3ccccc3c(Nc3ccc(NS(C)(=O)=O)cc3)c2c1 | 25
58 | COc1cc(NS(C)(=O)=O)ccc1Nc1c2ccccc2nc2cc(N)ccc12 | 102
59 | COc1ccccc1Nc1c2ccccc2nc2ccccc12 | 25
60 | COc1cc(NS(C)(=O)=O)ccc1Nc1c2ccccc2nc2c(C(=O)NCC(O)CO)cccc12 (stereo unspecified) | 83
61 | CS(=O)(=O)Nc1ccc(Nc2c3ccccc3nc3ccccc23)c(Cl)c1 | 25
62 | CCCCOc1cccc2c(Nc3ccc(NS(=O)(=O)CCC)cc3OC)c3ccccc3nc12 | 80
63 | COc1cc(NS(C)(=O)=O)ccc1Nc1c2ccc(Cl)cc2nc2c(C)cccc12 | 75
64 | CS(=O)(=O)Nc1ccc(Nc2c3ccccc3nc3cc(O)ccc23)cc1 | 72
65 | NCc1ccc(Nc2c3ccccc3nc3cc([N+](=O)[O-])ccc23)cc1 | 25
66 | O=C(O)CCCCc1ccc(NC(=O)Nc2ccc(N=c3c4ccccc4[nH]c4ccccc34)cc2)cc1 | 80
67 | NCCCCc1ccc(NC(=O)Nc2ccc(N=c3c4ccccc4[nH]c4ccccc34)cc2)cc1 | 170
68 | COc1cc(NS(C)(=O)=O)ccc1Nc1c2ccccc2nc2c(C)c(C)ccc12 | 118
69 | Cc1ccc2c(Nc3ccc(NS(C)(=O)=O)cc3)c3cccc(C)c3nc2c1 | 70
70 | CCCCCCS(=O)(=O)Nc1ccc(Nc2c3ccccc3nc3c(C(N)=O)cccc23)c(OC)c1 | 87
71 | COc1ccc2c(Nc3ccc(NS(C)(=O)=O)cc3)c3ccc(OC)cc3nc2c1 | 56
72 | CCC(CC)C(=O)Nc1ccc(Nc2c3ccccc3nc3ccccc23)cc1 | 90
73 | COc1cc(NS(=O)(=O)CCCCN)ccc1Nc1c2ccccc2nc2c(C(N)=O)cccc12 | 25
74 | COc1cc(NS(C)(=O)=O)ccc1Nc1c2ccccc2nc2cc(C#N)ccc12 | 93
75 | O=C(O)Cc1ccccc1Nc1c2ccccc2nc2ccccc12 | 25
76 | CCS(=O)(=O)Nc1ccc(Nc2c3cccc(C)c3nc3c(C)cccc23)c(OC)c1 | 70
77 | CCCOc1cccc2c(Nc3ccc(NS(C)(=O)=O)cc3)c3ccccc3nc12 | 100
78 | CCCCOc1cccc2c(Nc3ccc(NS(C)(=O)=O)cc3OC)c3ccccc3nc12 | 80

Row | Structure (SMILES) | ILSmax [%]
79 | COc1cc(Nc2c3ccccc3nc3ccccc23)ccc1N | 25
80 | C(=C/c1ccc(Nc2c3ccccc3nc3ccccc23)cc1)/c1ccccc1 | 25
81 | O=C(O)c1ccc(/C=C/c2ccc(Nc3c4ccccc4nc4ccccc34)cc2)cc1 | 158
82 | Cc1cccc2c(Nc3ccc(NS(=O)(=O)c4ccc(N)cc4)cc3)c3ccccc3nc12 | 55
83 | COc1cc(NS(C)(=O)=O)ccc1Nc1c2ccccc2nc2c1ccc1ncccc12 | 83
84 | Nc1ccc2c(=Nc3ccc(S(N)(=O)=O)cc3)c3ccc(N)cc3[nH]c2c1 | 60
85 | COc1ccc2[nH]c3ccccc3c(=Nc3ccc(NS(C)(=O)=O)cc3OC)c2c1 | 35
86 | CS(=O)(=O)Nc1ccc(Nc2c3ccccc3nc3c(C(N)=O)cccc23)cc1 | 50
87 | NCCCCCCS(=O)(=O)Nc1ccc(Nc2c3ccccc3nc3ccccc23)cc1 | 25
88 | CC(=O)NCCS(=O)(=O)Nc1ccc(Nc2c3ccc(I)cc3nc3ccc(N)cc23)cc1 | 105
89 | CCOc1cc(NS(C)(=O)=O)ccc1Nc1c2ccccc2nc2ccccc12 | 75
90 | N=C(N)NCCCS(=O)(=O)Nc1ccc(Nc2c3ccc(N)cc3nc3ccc(N)cc23)cc1 | 129
91 | Cc1ccc2c(Nc3ccc(NS(C)(=O)=O)cc3)c3ccccc3nc2c1C | 55
92 | CCNc1ccc(Nc2c3ccccc3nc3ccccc23)cc1 | 52
93 | Ic1ccccc1Nc1c2ccccc2nc2ccccc12 | 25
94 | O=S(=O)(Nc1ccc(Nc2c3ccccc3nc3ccccc23)cc1)c1ccccc1 | 75
95 | COc1cccc(Nc2c3ccccc3nc3ccccc23)c1 | 25
96 | CCCCNc1ccc(Nc2c3ccccc3nc3ccccc23)cc1 | 25
97 | c1ccc(Nc2c3ccccc3nc3ccccc23)cc1 | 25
98 | Fc1ccc(Nc2c3ccccc3nc3ccccc23)cc1 | 25
99 | Cc1ccc(Nc2c3ccccc3nc3ccccc23)cc1 | 90
100 | CS(=O)(=O)Nc1ccc(Nc2c3ccccc3nc3ccccc23)cc1Cl | 25
101 | CS(=O)(=O)Nc1ccc(Nc2c3ccccc3nc3cc(N)ccc23)cc1 | 134
